We go through one compound from US10888569B1, “Methods and compositions for treating cancer” (THE UNIVERSITY OF CHICAGO, priority 2017, dated 2021).

One assay deals with TNBC cells (BM1). Kind of assay: Metabolic phenotypes OCR and ECAR (Seahorse analyzer). The note with it: hemin (pre-)treatment overnight. It counts as cell-based, human. As to the method:
TNBC cell lines stably knocked down with lenti-viral shRNA for BACH1 were constructed and maintained as described previously. Gene expression analysis of cultured cells and isolated tumor tissues used a Reverse transcriptase kit followed by Roche96 cycler for real time mRNA quantification and Lycor imaging for immunoblotting. For in vitro cell viability assay with mitochondrial inhibitors, TNBC cells (2×10^3-5×10^3/well) seeded on 96 well plates overnight with culture media (DMEM with 25 mM Glucose) were treated with inhibitors in fresh culture media (DMEM with 1.25 mM Glucose) for 48 and 72 hours and stained with calcein AM and/or monitored for cellular confluency using an IncuCyte Zoom Live Cell Analysis system. Extracellular flux analyzer was used to assay metabolic phenotypes of BACH1-depleted TNBC cells and TNBC cells that are treated with hemin overnight before assays. For bioinformatics analysis using primary patient data cohort (TCGA), cBioportal and R were used.
Extracellular acidification rates (ECAR) and oxygen consumption rates (OCR) were monitored by a Seahorse Bioscience Analyzer (XF24; Univ. of Illinois at Chicago and XFe96; Biophysics Core Facility at Univ. of Chicago). Cells were seeded in 24 well plates at a density of 5×10^4 and 96 well plates at a density of 8×10^3 cells per well with growth media for at least 18 hours. The following day, media was changed to base media (DMEM, 143 mM NaCl, Phenol red, pH 7.35). For ECAR analysis, cells were added with media (2 mM Glutamine, pH 7.35) and monitored every 3 minutes following successive administration of 10 mM of glucose, and inhibitors such as 1 μM of oligomycin and 50 mM of 2-DG. For OCR analysis, cells were added with mito stress test base media (10 mM Glucose, 2 mM Glutamine, 1 mM Pyruvate, pH 7.4) and monitored every 3 minutes following successive administration of inhibitors such as 2 μM of oligomycin, 2 μM of FCCP, and […] of Rotenone/AntimycinA. BCA protein assays were used to normalize metabolic rates to cell number.

In a further assay the test system is pPDH (Ser293). Kind of assay: Immunoblotting of PDX tumor lysates: pPDH (Ser293). It counts as in vivo, mouse. The settings on record: following hemin treatment.
In assay [1] the target is T1, BACH1 (Homo sapiens, UniProt O14867).
T1 sequence (O14867 1-736): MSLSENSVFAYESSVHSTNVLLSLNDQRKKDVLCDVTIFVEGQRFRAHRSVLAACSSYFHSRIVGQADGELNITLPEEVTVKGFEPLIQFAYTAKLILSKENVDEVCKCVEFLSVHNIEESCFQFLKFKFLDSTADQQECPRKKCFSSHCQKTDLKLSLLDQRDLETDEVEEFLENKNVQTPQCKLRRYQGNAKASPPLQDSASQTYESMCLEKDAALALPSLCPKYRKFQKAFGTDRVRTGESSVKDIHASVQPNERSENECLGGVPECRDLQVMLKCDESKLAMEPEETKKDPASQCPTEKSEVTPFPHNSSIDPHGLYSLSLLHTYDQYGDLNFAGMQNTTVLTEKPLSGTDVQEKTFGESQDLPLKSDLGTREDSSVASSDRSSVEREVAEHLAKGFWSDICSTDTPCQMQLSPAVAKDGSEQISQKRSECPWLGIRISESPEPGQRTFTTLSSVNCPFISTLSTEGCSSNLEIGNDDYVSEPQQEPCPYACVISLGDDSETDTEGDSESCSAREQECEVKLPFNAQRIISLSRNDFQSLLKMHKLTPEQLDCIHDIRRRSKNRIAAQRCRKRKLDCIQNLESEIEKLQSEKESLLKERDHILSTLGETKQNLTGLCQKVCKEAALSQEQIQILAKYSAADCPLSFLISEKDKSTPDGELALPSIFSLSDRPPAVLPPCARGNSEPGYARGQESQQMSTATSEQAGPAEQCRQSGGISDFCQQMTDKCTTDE
Kind of assay: Immunoblotting of BACH1 in cell lysates after hemin. It counts as cell-based. Further details: Protein blots of BACH1 levels in BM1 and MB436 cells treated with Hemin for 4 or 24 hours; endogenous in cells; host or cells: BM1 (MDA-MB-231 derivative), MDA-MB-436, BT549. As to the method:
(§1) Whole cell lysates were prepared using RIPA buffer (Sigma) with protease inhibitor cocktails (1:100 ThermoFisher) and phosphatase inhibitors (SimpleStop1, Gold Biotechnology) at 4° C. and quantified using Bradford assays for western blotting using antibodies against BACH1 (sc-271211; Santa Cruz), and alpha-TUBULIN (sc-28199; Santa Cruz). Blots were imaged and processed using a Licor Odyssey Fc, dual-mode imaging system (Licor).
(A western blot detects proteins with antibodies after separation by electrophoresis.)

Assay [2] has as its target T1, BACH1. Put plainly: Immunoblotting of PDX tumor lysates: BACH1. The format is in vivo, mouse. The settings on record: following hemin treatment. Further details: BACH1 protein blots using tumor lysates from representative mice of different TNBC models; from tissue; host or cells: TNBC patient-derived xenograft tumour in mammary fat pad of SCID-Beige mice. As to the method: as §1
For a patient-derived xenografts (PDX) model, frozen PDX tumors in 0.5 ml of sterile HBSS were prepared in a volume of 10-20 mm^3. In brief, tumor fragments were implanted into the mammary fat pads of 5 weeks old SCID-Beige mice following standard procedures. […] Tumor volume was measured by caliper weekly. Tumor weight was measured at the end of drug treatment. Tumor size was shown as mean+/_s.e.m. with significance (p-value) by paired Student's t-test. All the animals were also monitored regularly for body weights.

Turning to `C=CC1=C(C)c2cc3[n-]c(cc4[n-]c(cc5nc(cc1n2)C(C)=C5C=C)c(C)c4CCC(=O)O)c(CCC(=O)O)c3C.[Cl-].[Fe+3]` [hemin, Chloro[3,7,12,17-tetramethyl-8,13-divinylporphyrin-2,18-dipropanoato(2-)]iron(III)], in the assay with TNBC cells (BM1), the ECAR result is given as “lower basal ECAR”, the “maximum OCR” value is listed as “higher maximum OCR” and the spare respiratory capacity entry is on record as “higher spare respiratory capacity”. For the same compound, the “pPDH (Ser293) protein expression in PDX tumors” value in the assay with pPDH (Ser293) is recorded as “depleted”. Also, the BACH1 levels entry at BACH1 [1] (20 μM hemin, cultured TNBC cells) was “effective at reducing BACH1 levels”. The BACH1 levels entry on BACH1 [1] (hemin 10-80 μM, TNBC cells) is on record as “effective at reducing BACH1 levels”. Moreover, the “BACH1 protein expression in PDX tumors” value on BACH1 [2] is recorded as “depleted”.
